Source: PubChem BioAssay AID2060496 (Molecular Pharmacology Branch, DTP, NCI, 2025)

Tested on: 276233-004-R-J1-PDC complex spheroid viability
Assay: Anticancer human tumor 276233-004-R-J1-PDC patient-derived colon adenocarcinoma cell line growth inhibition [GQUAD]
Details: for IC50: curve of first compound; for viability, T/C: stronger effect = lower value; active = viability on the fitted dose curve at most 10% of control; inactive = the rest
Outline: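 Viability of tumor cells grown as complex spheroids with endothelial and stromal cells, exposed to drug combinations. Top concentration at or near clinical Cmax (else 10 microM), diluted in half-log increments.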

[1] = second compound 0.0316 µM, first compound 0.0316 µM
[2] = second compound 0.0316 µM, first compound 0.1 µM
[3] = second compound 0.0316 µM, first compound 0.316 µM
[4] = second compound 0.0316 µM, first compound 1 µM
[5] = second compound 0.0316 µM, first compound 3.16 µM
[6] = second compound 0.0316 µM, first compound 10 µM
[7] = second compound 0.1 µM, first compound 0.0316 µM
[8] = second compound 0.1 µM, first compound 0.1 µM
[9] = second compound 0.1 µM, first compound 0.316 µM
[10] = second compound 0.1 µM, first compound 1 µM
[11] = second compound 0.1 µM, first compound 3.16 µM
[12] = second compound 0.1 µM, first compound 10 µM
[13] = second compound 0.316 µM, first compound 0.0316 µM
[14] = second compound 0.316 µM, first compound 0.1 µM
[15] = second compound 0.316 µM, first compound 0.316 µM
[16] = second compound 0.316 µM, first compound 1 µM
[17] = second compound 0.316 µM, first compound 3.16 µM
[18] = second compound 0.316 µM, first compound 10 µM
[19] = second compound 1 µM, first compound 0.0316 µM
[20] = second compound 1 µM, first compound 0.1 µM
[21] = second compound 1 µM, first compound 0.316 µM
[22] = second compound 1 µM, first compound 1 µM
[23] = second compound 1 µM, first compound 3.16 µM
[24] = second compound 1 µM, first compound 10 µM
[25] = second compound 3.16 µM, first compound 0.0316 µM
[26] = second compound 3.16 µM, first compound 0.1 µM
[27] = second compound 3.16 µM, first compound 0.316 µM
[28] = second compound 3.16 µM, first compound 1 µM
[29] = second compound 3.16 µM, first compound 3.16 µM
[30] = second compound 3.16 µM, first compound 10 µM
[31] = second compound 10 µM, first compound 0.0316 µM
[32] = second compound 10 µM, first compound 0.1 µM
[33] = second compound 10 µM, first compound 0.316 µM
[34] = second compound 10 µM, first compound 1 µM
[35] = second compound 10 µM, first compound 3.16 µM
[36] = second compound 10 µM, first compound 10 µM
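Note: spheroids exposed to drugs for seven days.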
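Throughout, for viability, T/C: 100% = DMSO vehicle control viability.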

CC1COCCN1c1cc(C2(S(C)(=N)=O)CC2)nc(-c2ccnc3[nH]ccc23)n1 (stereo not drawn) + Cc1cnc(CNC(=O)c2c(=O)c3ccc(N4CCCN(C)CC4)nc3n3c2sc2ccccc23)cn1
inactive: viability, T/C [1] 99% | viability, T/C [2] 72.1% | viability, T/C [3] 90.8% | viability, T/C [4] 77.4% | viability, T/C [5] 75.3% | viability, T/C [6] 60.2% | viability, T/C [7] 82% | viability, T/C [8] 76.5% | viability, T/C [9] 76% | viability, T/C [10] 92.6% | viability, T/C [11] 80.2% | viability, T/C [12] 64.5% | viability, T/C [13] 75.2% | viability, T/C [14] 87.8% | viability, T/C [15] 83.5% | viability, T/C [16] 78.2% | viability, T/C [17] 79.1% | viability, T/C [18] 58.6% | viability, T/C [19] 75.8% | viability, T/C [20] 72.3% | viability, T/C [21] 72.9% | viability, T/C [22] 58.7% | viability, T/C [23] 70.9% | viability, T/C [24] 53% | viability, T/C [25] 64.5% | viability, T/C [26] 67.6% | viability, T/C [27] 75.4% | viability, T/C [28] 69.3% | viability, T/C [29] 57% | viability, T/C [30] 41.9% | viability, T/C [31] 63.3% | viability, T/C [32] 66% | viability, T/C [33] 73% | viability, T/C [34] 58.8% | viability, T/C [35] 65% | viability, T/C [36] 42.8%
> 10 µM: IC50 (second compound 0.0316 µM) | IC50 (second compound 0.1 µM) | IC50 (second compound 0.316 µM) | IC50 (second compound 1 µM) | IC50 (second compound 10 µM)
5.9 µM: IC50 (second compound 3.16 µM)

COc1cccc2c1C(=O)c1c(O)c3c(c(O)c1C2=O)CC(O)(C(=O)CO)CC3OC1CC(N)C(O)C(C)O1 (stereo not drawn) + Cc1[nH]c2ccc(F)cc2c1-c1nc2c3cccnc3c3ncccc3c2[nH]1
2.48 µM: IC50 (second compound 0.0316 µM)
3.6 µM: IC50 (second compound 1 µM)
4.57 µM: IC50 (second compound 0.1 µM)
3.27 µM: IC50 (second compound 0.316 µM)
inactive: viability, T/C [1] 79.4% | viability, T/C [2] 79.9% | viability, T/C [3] 108% | viability, T/C [4] 64.9% | viability, T/C [5] 53% | viability, T/C [6] 39% | viability, T/C [7] 82.6% | viability, T/C [8] 96.3% | viability, T/C [9] 75.3% | viability, T/C [10] 89.1% | viability, T/C [11] 54.2% | viability, T/C [12] 40.9% | viability, T/C [13] 82.6% | viability, T/C [14] 82.6% | viability, T/C [15] 81.3% | viability, T/C [16] 77.2% | viability, T/C [17] 50.5% | viability, T/C [18] 34.2% | viability, T/C [19] 57.2% | viability, T/C [20] 78.3% | viability, T/C [21] 70.1% | viability, T/C [22] 70.9% | viability, T/C [23] 52.1% | viability, T/C [24] 33.8% | viability, T/C [25] 50.7% | viability, T/C [26] 63.5% | viability, T/C [27] 52.3% | viability, T/C [28] 41.4% | viability, T/C [29] 43.3% | viability, T/C [30] 35.7% | viability, T/C [31] 50% | viability, T/C [32] 44.4% | viability, T/C [33] 49.1% | viability, T/C [34] 47.6% | viability, T/C [35] 39.7% | viability, T/C [36] 27.6%
0.415 µM: IC50 (second compound 3.16 µM)
< 0.0316 µM: IC50 (second compound 10 µM)

C=CC(=O)N1CCN(c2nc(=O)n(-c3c(C)ccnc3C(C)C)c3nc(-c4c(O)cccc4F)c(F)cc23)C(C)C1 (stereo not drawn) + Cc1cnc(CNC(=O)c2c(=O)c3ccc(N4CCCN(C)CC4)nc3n3c2sc2ccccc23)cn1
> 10 µM: IC50 (second compound 0.0316 µM) | IC50 (second compound 0.1 µM) | IC50 (second compound 0.316 µM) | IC50 (second compound 1 µM) | IC50 (second compound 3.16 µM) | IC50 (second compound 10 µM)
inactive: viability, T/C [1] 82.3% | viability, T/C [2] 75.1% | viability, T/C [3] 81.3% | viability, T/C [4] 83.5% | viability, T/C [5] 103% | viability, T/C [6] 95.8% | viability, T/C [7] 93.6% | viability, T/C [8] 84.6% | viability, T/C [9] 94.9% | viability, T/C [10] 92.8% | viability, T/C [11] 98.4% | viability, T/C [12] 83.8% | viability, T/C [13] 80.6% | viability, T/C [14] 86.3% | viability, T/C [15] 82.6% | viability, T/C [16] 83.6% | viability, T/C [17] 83.3% | viability, T/C [18] 86.7% | viability, T/C [19] 76.3% | viability, T/C [20] 71% | viability, T/C [21] 88.9% | viability, T/C [22] 108% | viability, T/C [23] 79.5% | viability, T/C [24] 89.5% | viability, T/C [25] 75.1% | viability, T/C [26] 74.9% | viability, T/C [27] 77.1% | viability, T/C [28] 73.4% | viability, T/C [29] 77.7% | viability, T/C [30] 83.5% | viability, T/C [31] 62.7% | viability, T/C [32] 68.9% | viability, T/C [33] 75.6% | viability, T/C [34] 61.6% | viability, T/C [35] 80.3% | viability, T/C [36] 68.8%

CC(C)(O)C1CCC(Nc2ccc3ncc(-c4cccc(C(F)(F)F)c4)n3n2)CC1 (stereo not drawn) + Cc1cnc(CNC(=O)c2c(=O)c3ccc(N4CCCN(C)CC4)nc3n3c2sc2ccccc23)cn1
3 µM: IC50 (second compound 1 µM)
active: viability, T/C [35] 7.86% | viability, T/C [36] 3.2%
0.994 µM: IC50 (second compound 3.16 µM)
> 10 µM: IC50 (second compound 0.0316 µM) | IC50 (second compound 0.1 µM) | IC50 (second compound 0.316 µM)
0.995 µM: IC50 (second compound 10 µM)
inactive: viability, T/C [1] 94.9% | viability, T/C [2] 79.8% | viability, T/C [3] 81.8% | viability, T/C [4] 70.6% | viability, T/C [5] 55.2% | viability, T/C [6] 58.8% | viability, T/C [7] 83.2% | viability, T/C [8] 109% | viability, T/C [9] 78.4% | viability, T/C [10] 68.9% | viability, T/C [11] 49.4% | viability, T/C [12] 55.6% | viability, T/C [13] 84.3% | viability, T/C [14] 92.5% | viability, T/C [15] 83.7% | viability, T/C [16] 63.1% | viability, T/C [17] 54% | viability, T/C [18] 49.5% | viability, T/C [19] 80.4% | viability, T/C [20] 89.2% | viability, T/C [21] 84.7% | viability, T/C [22] 67.7% | viability, T/C [23] 50.4% | viability, T/C [24] 45.4% | viability, T/C [25] 79.9% | viability, T/C [26] 74.3% | viability, T/C [27] 69.8% | viability, T/C [28] 51.1% | viability, T/C [29] 34.7% | viability, T/C [30] 39.1% | viability, T/C [31] 75.6% | viability, T/C [32] 57% | viability, T/C [33] 58.6% | viability, T/C [34] 50.5%
